{"source": "patent US20240366571A1", "about": "“MODULATORS OF SK4 POTASSIUM CHANNEL AND USES THEREOF” (Ramot at Tel-Aviv University Ltd., priority 2022, published 2024)", "key": {"WT SK4 channels": {"molecular_target": "T1, WT SK4 channels (Homo sapiens, UniProt O15554)", "T1 construct": "expressed in transfected cells; host or cells: CHO cells", "assay": "Inside-out macro-patch recording of WT SK4 channels in transfected CHO cells", "format": "cell-based", "conditions": "50 μg/ml internal application, 1 minute, 1 μM free-Ca2+", "description": "Inside-out macro-patch recording: To measure the Ca^2+ concentration dependence for SK4 channel activation, CHO cells were co-transfected with plasmids encoding WT SK4 (1 μg) and WT CaM (1 μg) using the Lipofectamine reagent at a ratio of 1:2. The cells were transfected 48 hours prior to recordings. The patch pipettes were pulled and fire-polished with a MF-900 micro-forge (Narashige) to reach an internal diameter of […]. The resistance of the patch electrodes ranged from 2-3 MΩ. The pipette solution contained 135 mM KCl, 1 mM MgSO4, 0.91 mM CaCl2, and 10 mM HEPES at pH 7.3. The bath solution contained 135 mM KCl, 5 mM EGTA, and 10 mM HEPES at pH 7.3. EGTA was used to titer the different Ca^2+ concentration solutions, calculated using the software by C. Patton of Stanford University (http://maxchelator(dot)stanford(dot)edu/). Currents were recorded by 10 repetitive 1 second duration voltage ramps from −100 mV to +100 mV from a holding potential of 0 mV. The current amplitudes in response to increasing Ca^2+ concentrations were normalized to those obtained at a saturating Ca^2+ concentration (3 μM). Furthermore, to determine the Ca^2+ concentration dependence for activation in the presence of a tested compound, such as the exemplary compound BA6b9 (10 μM), the current amplitudes were normalized to those obtained at large maximal Ca^2+ concentration of 10 μM. For PIP2-dependent activation, PIP2 affinity to the SK4 channel was also examined in the inside-out configuration. The dose-response curve for PIP2 was measured with increasing concentrations of diC8-PIP2 in the presence of 1 μM Ca^2+. The diC8-PIP2 effect on the channel current was measured after complete depletion of the native PIP2 using sonicated poly-L-lysine (PLL) 50 μg/ml and a subsequent 2-minute washout. […] Apparent EC50 values for Ca^2+ or diC8-PIP2 were determined by fitting the data points to a standard dose-response curve Y=100/(1+10^(log EC(50)−X)*HillSlope).\nThe calcium dependence of the human SK4 K^+ channel in transfected CHO cells was characterized using inside-out macro-patches. The expressed currents were recorded in response to voltage ramps (−100 millivolt (mV) to +100 mV for 1 seconds) and by increasing the free-Ca^2+ concentrations applied to the internal face of the membrane. […]\nTo examine whether PIP2 is involved in the modulation of the SK4 channel, channel trafficking to the plasma membrane was increased by co-transfecting CHO cells with plasmid DNAs encoding for the channel and for wild type (WT) CaM. The resulting currents were recorded from inside-out macro-patches, where the intracellular solution contained a saturating concentration of 1 μM free-Ca^2+, as shown in FIG. 1B (see, black plot)."}, "human SK4": {"molecular_target": "T2, human SK4 (Homo sapiens, UniProt O15554)", "T2 construct": "expressed in transfected cells; host or cells: CHO cells", "assay": "Whole-cell patch-clamp of WT SK4 K+ currents in transfected CHO cells", "format": "cell-based", "conditions": "for SK4 K+ channel modulating activity: WT SK4 currents in absence and presence of 20 μM compound", "description": "Constructs: For CHO cell transfection, the following were cloned: human SK1, rat SK2, human SK3, and rat calmodulin into the pcDNA3 vector, human SK4 into pEGFP-C1 vector, and PIP4,5-kinase into an IRES-dsRed plasmid. The mutations were introduced using the PCR-based QuikChange™ site-directed mutagenesis (Stratagene®) and were verified by full sequencing of the entire plasmid vector.\nCell Culture and Transfection: Chinese hamster ovary (CHO) cells were grown in Dulbecco's modified Eagle's medium supplemented with 2 millimolar (mM) glutamine, 10% fetal calf serum, and antibiotics. In brief, 40,000 cells seeded on poly-L-lysine-coated glass coverslips (13 millimeter (mm) in diameter) in a 24-multiwell plate were transfected with 0.5 microgram (μg) pEGFP-SK4/0.5 μg mutant SK4, 1.2 μg dsRed-PIP4,5-kinase or with 1 μg SK1/SK2/SK3 together with pIRES-CD8 (0.3 μg) as a marker for transfection. Transfection was performed using TransIT-LT1 Transfection Reagent (Mirus Bio) according to the manufacturer's protocol. For electrophysiology, transfected cells were visualized approximately 40 hours after transfection with a Zeiss Axiovert 35 inverted florescence microscope.\nWhole-cell patch-clamp recording: Voltage-clamp recordings were performed using the whole-cell configuration of the patch-clamp technique. Signals were amplified using an […] patch-clamp amplifier (Molecular Devices), sampled at 5 kHz and filtered at 2.4 kHz via a four pole Bessel low pass filter. Data were acquired using pClamp™ 10.5 software in conjunction with an Axon™ DigiData® 1440A interface (Molecular Devices). The patch pipettes were pulled from borosilicate glass (Harvard Apparatus) with a resistance of 3-5 megaohms (MΩ). The intracellular pipette solution contained 130 mM KCl, 5 mM EGTA, 10 mM HEPES, pH 7.3 (adjusted with KOH), and CaCl2 calculated for a final concentration of 1 μM free-Ca^2+, by MAXCHELATOR (WEBMAXC STANDARD) software, with sucrose added to adjust osmolarity to 290 mosM. The external solution (310 mosM) contained 140 mM NaCl, 4 mM KCl, 1.8 mM CaCl2, 1.2 mM MgCl2, 11 mM glucose, and 5.5 mM HEPES adjusted with NaOH to pH 7.3. CHO cells were held at −90 millivolt (mV) and SK4 K^+ currents were activated using a voltage ramp protocol from −100 mV to +60 mV for 150 milliseconds. Electrophysiological data analysis was performed using the Clampfit program (pClamp™ 10.5; Molecular Devices).\nSome of the compounds were tested by comparing trace of WT SK4 channel currents in the absence and presence of 20 μM of the tested compound."}, "[1]": {"test_system": "isolated guinea pig hearts", "assay": "Langendorff perfused isolated guinea pig hearts", "conditions": "10 μM", "description": "(§1) Animals: Adult male Sprague-Dawley rats (n=56, 200-250 grams) and Guinea pigs (n=19, 400-700 grams) obtained from Envigo Laboratories (Jerusalem, Israel) were bred and grown in Ben-Gurion University of the Negev, Israel. Experiments in rats and guinea pigs were approved by the institutional ethics committee of Ben-Gurion University of the Negev, Israel (Protocol No. IL-24-05-2020(D) and were carried out in strict accordance with the Guide for the Care and Use of Laboratory Animals of the National Institutes of Health. The animals were kept under standardized conditions: 12:12 light: dark cycles at 20-24° C. and 30-70% relative humidity.\n(§2) Perfused isolated hearts—Langendorff method: The isolated heart experiment setup was performed as described in Etzion et al., Am J Physiol Heart Circ Physiol (2008) 295, H1460-1469; and Mor et al., J Pharmacol Exp Ther (2013) 344, 59-67.]. Briefly, each animal was anesthetized with 2% isoflurane and an intraperitoneal (IP) injection of pentobarbital (60 mg/kg), followed by IP injection of Heparin (1000 U/kg). The heart was rapidly excised and placed into ice-cold Tyrode's buffer solution (consisted of 140 mM NaCl, 5.4 mM KCl, 0.5 mM MgCl2, 2.5 mM CaCl2, 0.39 mM NaH2PO4, 10 mM HEPES and 11 mM glucose, and titrated to pH 7.4 with NaOH). The aorta was cannulated and connected to a pre-heated (37° C.) and oxygenated perfusion system with Tyrode's solution while perfusion pressure was maintained at about 70 mmHg throughout the experiment. Prior to the experiment, the heart was left in Tyrode's solution to stabilize for 20 minutes for hemodynamic measurements, the left atrial appendage was excised, and a collapsed latex balloon was inserted into the left ventricle (LV) through the mitral valve. Once positioned, the balloon was filled with double distilled water reaching an end-diastolic pressure of 10-15 mmHg. Coronary perfusion pressure and LV pressure were recorded by a pressure amplifier (ETH-256C amplifier and B-100 probes, iWorx, NH, USA). Electrophysiological signals were recorded from the high right atrium (HRA) via a miniature quadripolar hook electrode (for simultaneous pacing and recording) and from the LV via a bipolar hook electrode. Electrical signals were filtered (1-2 kHz) and recorded by two voltage amplifiers (Model 3000, A-M Systems, Carlsberg, WA, USA). Signals were interfaced with a PC using an A/D converter (PCI-6024E, National Instruments, Austin TX, USA) and a custom-designed program developed with LabVIEW programing language (National Instruments, Austin, TX, USA) to control signal acquisition, data saving and off-line analysis. Measured physiological parameters during the experiment included perfusion flow (ml/minute) as a marker for coronary perfusion pressure, LV developed pressure, dP/dt±(representing the rate of rise of left ventricular pressure during isovolumetric contraction as a marker for LV contractility), heart rate, PR, and RR intervals. Tram-34 and BA6b9 were applied for a 20-minutes incubation period and physiological parameters were recorded.\n(§3) Effective refractory period measurements: Using both custom-made quadripolar electrode inserted on the HRA and two bipolar electrodes (recording and pacing) on the LV, allowed measurement of the effective refractory period (ERP) at the atrial level (atrial effective refractory period, AERP), atrioventricular level (AVERP), and ventricular level (VERP). For ERP measurement, a programmed S1S2 stimulation protocol was performed using double diastolic threshold intensity. The protocol consisted of ten S1-S2 intervals of 150 milliseconds (ms) followed by an S1-S2 interval that was reduced by 1 ms each time, until pacing capture failed three consecutive times. AERP, AVERP, and VERP were measured and recorded prior and after exposure to the used inhibitor, either Tram-34 or BA6b9."}, "isolated rat hearts": {"test_system": "isolated rat hearts", "assay": "Langendorff perfused isolated rat hearts: electrophysiology and hemodynamics", "conditions": "10 μM", "description": "as §1, §2, §3"}}, "note": "“Also recorded” adds a separate entry of the source."}
{"molecule": "poly-L-lysine hydrochloride [PLL, reference compound]", "values": [{"measurement": "decrease (inhibition) of SK4 current", "setting": "WT SK4 channels", "value": 68, "unit": "%"}]}
{"molecule": "CCCCCCn1c(=O)[nH]c2ccccc21", "note": "[BA5B, 1-hexyl-1,3-dihydro-2H-benzo[d]imidazol-2-one]", "values": [{"measurement": "SK4 K+ channel modulating activity", "setting": "human SK4", "value": "inhibition; also recorded: Inhibitor"}]}
{"molecule": "Cc1cc2[nH]c(=O)[nH]c2cc1C", "note": "[BA50, 5,6-dimethyl-1,3-dihydro-2H-benzo[d]imidazol-2-one]", "values": [{"measurement": "SK4 K+ channel modulating activity", "setting": "human SK4", "value": "Inactive"}]}
{"molecule": "CCCCCCn1c(=O)n(CCCCCC)c2cc(F)ccc21", "note": "[BA66, 5-fluoro-1,3-dihexyl-1,3-dihydro-2H-benzo[d]imidazol-2-one]", "values": [{"measurement": "SK4 K+ channel modulating activity", "setting": "human SK4", "value": "Inactive"}]}
{"molecule": "CCCn1c(=O)[nH]c2ccccc21", "note": "[BA3B, 1-propyl-1,3-dihydro-2H-benzo[d]imidazol-2-one]", "values": [{"measurement": "SK4 K+ channel modulating activity", "setting": "human SK4", "value": "Inactive"}]}
{"molecule": "CCCn1c(=O)n(CCC)c2cc(C)ccc21", "note": "[BA2OC3c, 5-methyl-1,3-dipropyl-1,3-dihydro-2H-benzo[d]imidazol-2-one]", "values": [{"measurement": "SK4 K+ channel modulating activity", "setting": "human SK4", "value": "Inactive"}]}
{"molecule": "CCCCCCn1c(=O)n(CCCCCC)c2cc(C)c(C)cc21", "note": "[BA54, 1,3-dihexyl-5,6-dimethyl-1,3-dihydro-2H-benzo[d]imidazol-2-one]", "values": [{"measurement": "SK4 K+ channel modulating activity", "setting": "human SK4", "value": "Inactive"}]}
{"molecule": "CCCCCCCn1c(=O)n(CCCCCCC)c2ccccc21", "note": "[BA6A, 1,3-diheptyl-1,3-dihydro-2H-benzo[d]imidazol-2-one]", "values": [{"measurement": "SK4 K+ channel modulating activity", "setting": "human SK4", "value": "Inactive"}]}
{"molecule": "Cc1cccc2[nH]c(=O)[nH]c12", "note": "[BA30, 4-methyl-1,3-dihydro-2H-benzo[d]imidazol-2-one]", "values": [{"measurement": "SK4 K+ channel modulating activity", "setting": "human SK4", "value": "Inactive"}]}
{"molecule": "CCCCCn1c(=O)[nH]c2ccccc21", "note": "[BA4B, 1-pentyl-1,3-dihydro-2H-benzo[d]imidazol-2-one]", "values": [{"measurement": "SK4 K+ channel modulating activity", "setting": "human SK4", "value": "inhibition; also recorded: Inhibitor"}]}
{"molecule": "Clc1ccccc1C(c1ccccc1)(c1ccccc1)n1cccn1", "note": "[Tram-34, 1-[(2-chlorophenyl)diphenylmethyl]-1H-pyrazole, reference compound]", "values": [{"measurement": "AERP (effect)", "setting": "[1]", "value": "significantly prolonged"}, {"measurement": "AVERP (effect)", "setting": "[1]", "value": "significantly prolonged"}, {"measurement": "action potential activation current (atrial and ventricular pacing thresholds)", "setting": "[1]", "value": "Neither Tram-34 nor BA6b9 affected"}, {"measurement": "coronary flow (perfusion flow velocity)", "setting": "[1]", "value": "no effect"}, {"measurement": "coronary flow (perfusion flow velocity)", "setting": "isolated rat hearts", "value": "significantly lowered"}, {"measurement": "left ventricular filling pressure (developed pressure)", "setting": "isolated rat hearts", "value": "did not affect"}, {"measurement": "maximal pressure change in left ventricular contractility (dP/dt max)", "setting": "isolated rat hearts", "value": "reduces both parameters"}, {"measurement": "minimal pressure change in left ventricular contractility (dP/dt min)", "setting": "isolated rat hearts", "value": "reduces both parameters"}]}
{"molecule": "CCCCCCCn1c(=O)[nH]c2ccccc21", "note": "[BA6B, 1-heptyl-1,3-dihydro-2H-benzo[d]imidazol-2-one]", "values": [{"measurement": "inhibition of WT SK4 currents", "setting": "human SK4; 20 μM, whole-cell", "value": "about 25%"}, {"measurement": "inhibition at 20 µM", "setting": "human SK4; CHO, 20 μM, whole-cell", "value": 25, "unit": "%"}, {"measurement": "SK4 K+ channel modulating activity", "setting": "human SK4", "value": "inhibited; also recorded: inhibition; also recorded: Inhibitor"}, {"measurement": "IC50", "setting": "human SK4; dose-dependent inhibition of WT SK4 channels, read-out: SK4 K+ channel modulating activity (IC50)", "value": 50, "unit": "µM"}]}
